Assays:
Assay type in all cases: in vivo, human
bronchitis = test: Treatment of persons with bronchitis with the Medicine (Examples 12-14); details: Example 13: prior treatment, no dose given
Source text: (§1) Given below are examples of using the medicinal drug of type I/II for treating allergic rhinitis, osteoarthritis, gouty arthritis, bronchitis, hemorrhoids, urticaria, toothache, tinea pedis, acute viral nasopharyngitis, herpes simplex, dandruff, itching, bromhidrosis, and vaginitis. The formulation of the drug of type I/II used in these examples was the preferred formulation, mentioned above, in which the drug was formed with potassium hydrogen peroxymonosulfate as the active oxygen-releasing material, sodium chloride as the inorganic halide, sodium hexametaphosphate as the alkali metal phosphate, sulfamic acid, malic acid as the non-reducing organic acid, and sodium dodecylbenzene sulfonate as the surfactant at approximately the typical mass percentages mentioned above. A formulation approximating this formulation is commercially available in the product Virkon. This formulation of the drug of type I/II is referred to below as the “Medicine”. […]

gouty arthritis = test: Treatment of persons with gouty arthritis with the Medicine (Examples 9-11); details: no dose given; for patient-reported outcome of previously tried treatments: Example 11: prior treatment
Source text: Given below are examples of using the medicinal drug of type I/II for treating allergic rhinitis, osteoarthritis, gouty arthritis, bronchitis, hemorrhoids, urticaria, toothache, tinea pedis, acute viral nasopharyngitis, herpes simplex, dandruff, itching, bromhidrosis, and vaginitis. The formulation of the drug of type I/II used in these examples was the preferred formulation, mentioned above, in which the drug was formed with potassium hydrogen peroxymonosulfate as the active oxygen-releasing material, sodium chloride as the inorganic halide, sodium hexametaphosphate as the alkali metal phosphate, sulfamic acid, malic acid as the non-reducing organic acid, and sodium dodecylbenzene sulfonate as the surfactant at approximately the typical mass percentages mentioned above. A formulation approximating this formulation is commercially available in the product Virkon. This formulation of the drug of type I/II is referred to below as the “Medicine”.
The Medicine for each person infected with allergic rhinitis, osteoarthritis, gouty arthritis, bronchitis, hemorrhoids, urticaria, toothache, tinea pedis, acute viral nasopharyngitis, herpes simplex, dandruff, itching, bromhidrosis, and vaginitis is provided for topical, intranasal, oral, or/and injection administration 1-12 times per day, preferably 1-8 times per day, more preferably 1-6 times per day, typically 1-4 times per day, in liquid form at a dosage of 0.00001-5%, preferably 0.001-3%, more preferably 0.1-2%, typically 0.5-1%, for a time of contact of 1 minute-12 hours, preferably 1 minute-6 hours, more preferably 1 minute-2 hours, typically 1-30 minutes . The treatment period in each in each of the following examples is normally 1-12 months, preferably 1-6 months, more preferably 1-3 months, typically 1-30 days.
A retired adult had gouty arthritis for 10 years. The […] reported that they were in excruciating pain on random days and that previously attempted treatments for the pain were unsuccessful. […]

osteoarthritis = test: Treatment of persons with osteoarthritis with the Medicine (Examples 6-8); details: Example 6: prior treatment, no dose given
Source text: as §1

vaginitis = test: Treatment of persons with vaginitis with the Medicine (Examples 48-50); details: no dose given
Source text: as §1

itching = test: Treatment of persons with itching with the Medicine (Examples 41-43); details: no dose given
Source text: as §1

dandruff = test: Treatment of persons with dandruff with the Medicine (Examples 37-40); details: Example 37: prior treatment, (some of) these decreased the amount of dandruff
Source text: Given below are examples of using the medicinal drug of type I/II for treating allergic rhinitis, osteoarthritis, gouty arthritis, bronchitis, hemorrhoids, urticaria, toothache, tinea pedis, acute viral nasopharyngitis, herpes simplex, dandruff, itching, bromhidrosis, and vaginitis. […] A formulation approximating this formulation is commercially available in the product Virkon. This formulation of the drug of type I/II is referred to below as the “Medicine”.
The Medicine was provided to […] as a 1% solution for topical administration by scrubbing the Medicine into their scalp and hair for 5 minutes and then washing their scalp and hair. The […] reported that they administered the Medicine to themself in the foregoing manner 4 times a week for 2 weeks.

[1] = system: acute viral nasopharyngitis; test: Treatment of persons with acute viral nasopharyngitis with the Medicine (Examples 28-32); details: Example 30: prior treatment, no dose given

COc1ccc2c3c1O[C@H]1[C@@H](O)C=C[C@H]4[C@@H](C2)N(C)CC[C@@]341 [codeine]
patient-reported outcome of previously tried treatments for bronchitis (bronchitis): little success

COc1cc2c(c(OC)c1OC)-c1ccc(OC)c(=O)cc1[C@@H](NC(C)=O)CC2 [colchicines, colchicine]
patient-reported outcome of previously tried treatments (gouty arthritis): without significant success

N[C@H]1C(O)O[C@H](CO)[C@@H](O)[C@@H]1O (some centres unmarked) [glucosamine]
patient-reported outcome of previously tried treatments for osteoarthritis (osteoarthritis): without effective relief

C[C@]12CCC(=O)C=C1CC[C@@H]1[C@@H]2[C@@H](O)C[C@@]2(C)[C@H]1CC[C@]2(O)C(=O)CO [hydrocortisone]
patient-reported outcome of previously tried treatments for vaginitis (vaginitis; Example 48: prior treatment): without significant success
patient-reported outcome of previously tried treatments for vaginitis (vaginitis; Example 50: prior treatment): to no avail
patient-reported outcome of previously tried treatments for itching (itching; Example 42: prior treatment): without success
patient-reported outcome of previously tried treatments for itching (itching; Example 43: prior treatment): little success

CC(C)Cc1ccc(C(C)C(=O)O)cc1 (centres unmarked) [ibuprofen]
patient-reported outcome of previously tried treatment for gouty arthritis (gouty arthritis; Example 10: prior treatment): no significant success
patient-reported outcome of previously tried treatments (gouty arthritis): without significant success

CC(=O)N1CCN(c2ccc(OCC3COC(Cn4ccnc4)(c4ccc(Cl)cc4Cl)O3)cc2)CC1 (centres unmarked) [ketoconazole]
patient-reported outcome of previously tried treatments for dandruff (dandruff): dandruff was still visible on their scalp

CC(=O)Nc1ccc(O)cc1 [paracetamol]
patient-reported outcome of previously tried treatments for acute viral nasopharyngitis [1]: little success

CN[C@@H](C)[C@@H](O)c1ccccc1 [pseudoephedrine]
patient-reported outcome of previously tried treatments for acute viral nasopharyngitis [1]: little success

S=[Se]=S [selenium sulfide]
patient-reported outcome of previously tried treatments for dandruff (dandruff): dandruff was still visible on their scalp

zinc pyrithione
patient-reported outcome of previously tried treatments for dandruff (dandruff): dandruff was still visible on their scalp

Reference: patent publication US10383894B2, “Human medicinal treatment using salt of peroxymonosulfuric acid” (LuTran Industries, Inc., priority 2010, dated 2019)
